Source: PMC3626661, “Functional Specificity of Sex Pheromone Receptors in the Cotton Bollworm Helicoverpa armigera” (PLoS ONE, 2013)

Legend:
Experiment in all cases: two-electrode voltage clamp in Xenopus oocytes, dose-response
Assay type in all cases: cell-based
HarmOR6 = molecular target: T1, HarmOR6 (Helicoverpa armigera, UniProt R4JSE3)
T1 construct: gene OR6; full-length ORF; with HarmOrco (HarmOR2)
T1 sequence (R4JSE3 1-425): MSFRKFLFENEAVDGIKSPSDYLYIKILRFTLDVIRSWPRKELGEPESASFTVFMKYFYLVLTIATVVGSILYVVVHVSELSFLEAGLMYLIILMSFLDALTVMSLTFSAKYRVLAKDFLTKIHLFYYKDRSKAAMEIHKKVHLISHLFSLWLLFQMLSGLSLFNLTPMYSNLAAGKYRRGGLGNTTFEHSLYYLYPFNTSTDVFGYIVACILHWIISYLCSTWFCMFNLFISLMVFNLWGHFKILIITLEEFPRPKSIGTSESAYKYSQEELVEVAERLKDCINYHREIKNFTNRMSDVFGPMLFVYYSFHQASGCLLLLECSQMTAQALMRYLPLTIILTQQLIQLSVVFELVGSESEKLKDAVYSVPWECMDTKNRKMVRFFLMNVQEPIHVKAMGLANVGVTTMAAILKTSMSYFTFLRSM
T1 sequence (A0A075TD45 1-473 partner): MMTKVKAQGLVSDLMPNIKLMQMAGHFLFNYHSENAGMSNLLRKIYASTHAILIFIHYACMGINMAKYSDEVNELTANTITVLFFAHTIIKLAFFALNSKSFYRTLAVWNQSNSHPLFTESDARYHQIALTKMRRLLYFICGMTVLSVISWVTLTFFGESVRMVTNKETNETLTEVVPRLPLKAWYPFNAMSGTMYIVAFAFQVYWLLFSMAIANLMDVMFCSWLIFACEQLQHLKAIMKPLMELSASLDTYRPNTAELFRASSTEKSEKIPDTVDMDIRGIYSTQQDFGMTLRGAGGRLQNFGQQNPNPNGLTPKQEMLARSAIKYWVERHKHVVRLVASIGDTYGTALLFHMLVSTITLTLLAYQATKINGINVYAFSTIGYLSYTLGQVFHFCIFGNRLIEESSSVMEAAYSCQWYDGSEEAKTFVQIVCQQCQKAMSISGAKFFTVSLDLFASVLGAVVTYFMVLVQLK
From the text: two-electrode voltage clamp in Xenopus oocytes, dose-response on HarmOR6 | Dose–response curve of HarmOR6/HarmOR2 Xenopus oocytes to Z9-16:Ald. | Dose–response curve of HarmOR6/HarmOR2 Xenopus oocytes to Z9-14:Ald.

HarmOR13 = molecular target: T2, HarmOR13 (Helicoverpa armigera, UniProt A0A075TD52)
T2 construct: gene OR13; full-length ORF; with HarmOrco (HarmOR2)
T2 sequence (A0A075TD52 1-425): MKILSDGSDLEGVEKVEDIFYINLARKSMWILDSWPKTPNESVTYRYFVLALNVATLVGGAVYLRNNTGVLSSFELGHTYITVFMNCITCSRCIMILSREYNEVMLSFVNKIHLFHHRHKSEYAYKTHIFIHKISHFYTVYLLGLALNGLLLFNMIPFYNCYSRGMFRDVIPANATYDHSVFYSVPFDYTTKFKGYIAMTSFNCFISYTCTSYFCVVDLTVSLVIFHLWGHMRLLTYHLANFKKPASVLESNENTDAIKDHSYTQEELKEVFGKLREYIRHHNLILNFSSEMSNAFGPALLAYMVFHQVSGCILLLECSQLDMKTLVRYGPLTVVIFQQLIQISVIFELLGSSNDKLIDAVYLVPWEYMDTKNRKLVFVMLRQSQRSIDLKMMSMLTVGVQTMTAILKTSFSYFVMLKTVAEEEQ
T2 sequence (A0A075TD45 1-473 partner): T1 sequence (A0A075TD45 1-473 partner)

HarmOR16 = molecular target: T3, HarmOR16 (Helicoverpa armigera, UniProt C6K7B8)
T3 construct: full-length ORF; with HarmOrco (HarmOR2)
T3 sequence (C6K7B8 1-422): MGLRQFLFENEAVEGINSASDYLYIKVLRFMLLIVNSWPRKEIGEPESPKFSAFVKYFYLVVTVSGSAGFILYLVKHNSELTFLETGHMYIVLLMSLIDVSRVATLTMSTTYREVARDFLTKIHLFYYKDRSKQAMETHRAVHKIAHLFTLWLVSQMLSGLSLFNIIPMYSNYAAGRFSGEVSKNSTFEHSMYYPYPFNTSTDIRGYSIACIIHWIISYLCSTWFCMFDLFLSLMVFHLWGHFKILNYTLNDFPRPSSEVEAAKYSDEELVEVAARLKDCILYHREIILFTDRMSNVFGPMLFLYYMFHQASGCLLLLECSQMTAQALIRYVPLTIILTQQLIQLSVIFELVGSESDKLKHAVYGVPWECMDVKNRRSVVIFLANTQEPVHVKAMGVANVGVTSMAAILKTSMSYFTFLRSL
T3 sequence (A0A075TD45 1-473 partner): T1 sequence (A0A075TD45 1-473 partner)
From the text: two-electrode voltage clamp in Xenopus oocytes, dose-response on HarmOR16 | Dose–response curve of HarmOR16/HarmOR2 Xenopus oocytes to Z11-16:OH.

Row | Structure (SMILES) | EC50 (HarmOR6) [µM] | also measured
1 | CCCC/C=C\CCCCCCCC=O [Z9-14:Ald, (Z)-9-tetradecenal] | 4.34 | 
2 | CCCC/C=C\CCCCCCCCCC=O [Z11-16:Ald, (Z)-11-hexadecenal] |  | EC50 (HarmOR13): 1.82 µM
3 | CCCC/C=C\CCCCCCCCCCO [Z11-16:OH, (Z)-11-hexadecen-1-ol] |  | EC50 (HarmOR16): 0.299 µM
4 | CCCCCC/C=C\CCCCCCCC=O [Z9-16:Ald, (Z)-9-hexadecenal] | 3.53 | 
